From patent US20260091082A1, “CYCLIC PEPTIDE DERIVATIVE COMPOSITION FOR TREATING OR PREVENTING EYE DISEASE” (DKS Co. Ltd., priority 2022, published 2026) come the findings set out here.

Values joined by “and” are separate entries in the source; they are usually repeats but may differ in a detail not shown here. Equal values may be shown once.

In this test the test system is anterior chamber aqueous humor pressure load rat model. Briefly: Retinal thickness (IPL, INL, ONL) in retinal damage model induced by anterior chamber aqueous humor pressure load. The test is classed as in vivo, Rat; Slc: SD. Conditions: for Thickness of IPL (μm) / Thickness of ONL (μm) / Thickness of INL (μm): 900 μm from optic disk, 14 days after model creation, mean ± S.E., 10 animals. How it is done:
• Name: Compound 9 • Source: Synthesized in the above Examples • Used amount: 0.4 mL (50 mg/mL solution) • Storage conditions: Freezing, light shielding
Method for preparing test substance (1 mg/mL): A high concentration solution prepared at 50 mg/mL was diluted 50 times with a medium to prepare a 1 mg/mL administration solution.
• Name: MK-801 • Distributor: SIGMA-ALDRICH • Use amount: 0.0501 g • Storage condition: refrigerated (2° C. to 8° C.)
Method for preparing positive control substance (10 mg/mL): 0.0501 g was weighed out and made up to a total volume of 5 mL with a control substance (physiological saline).
• Species and strains: Rat; Slc: SD • Number of animals on arrival and sex: 50 males • Age in weeks at arrival: 6 weeks old • Body weight range at arrival: 147.2 to 170.0 g • Source: Japan SLC, Inc.
Grouping was performed two days before the first creation of the retinal damage model induced by an anterior chamber aqueous humor pressure load. Using the daily body weight as an index, stratified random allocation was performed using SAS (Ver. 9.3, SAS Institute Japan Ltd.) and EXSUS (Ver. 8.0, CAC Croit Corporation) so that an average value of the body weights of each group was approximately uniform.
• Administration route: Eyedrop administration, intravenous administration • Administration method (eyedrop): Eyedrop administration was performed on a treated eye (right eye) of a rat using a micropipette 4 times a day (at intervals of 1.5 hours or more). • Administration method (intravenous): The amount of administration solution, calculated from the body weight on the day of administration, was administered from the tail vein using a syringe and an injection needle about 30 minutes before ischemic load. • Time of administration: Administration was performed according to the following schedule.
1. 10 mg/kg xylazine hydrochloride was intramuscularly administered on the model creation day (day 0). A rat was placed in an anesthesia box and subjected to general anesthesia with isoflurane (5%, oxygen:nitrous oxide=1:3). When anesthesia was effective, the rat was taken out of the anesthesia box, an inhalation anesthetic mask was worn, and anesthesia was maintained with isoflurane (1% to 5%, oxygen nitrous oxide=1:3).
2. The body temperature was maintained at 37° C. with a warming mat, and a mydrin P ophthalmic solution was instilled in the right eye (treated eye) of the rat to dilate the pupil, then the cravit ophthalmic solution 1.5% (Santen Pharmaceutical Co., Ltd.) was instilled.
3. A bottle of an IV bag containing physiological saline was previously suspended so that a water surface was 155 cm (100 mmHg or more) higher than the eye of the rat. The IV bag was connected to a pediatric infusion set (Terumo Corporation), a 27 G injection needle thereof was inserted into and fixed to the anterior chamber while slightly dripping the liquid from a needle tip. The model was created in the light phase (6:00 to 18:00) in consideration of the diurnal variation of the intraocular pressure.
4. After the needle was inserted into the anterior chamber, pressure (100 mmHg or more) was loaded and maintained in the anterior chamber by associating the reflux system.
5. After an ischemic load for 45 minutes, the injection needle and the like were removed, the inhalation anesthetic mask was removed, and the rat was sufficiently woken up under a warming mat, and then returned to the cage.
6. For 2 days after surgery, 10 mg/kg xylazine hydrochloride was intramuscularly administered as an analgesic for the purpose of alleviating the pain after the treatment.
1. Fourteen days after model creation, general anesthesia was performed with isoflurane (5%, oxygen:nitrous oxide=1:3), euthanasia was then performed by exsanguination, a suture was placed as a marker at the 12 o'clock position of the ocular conjunctiva, and eyeball enucleation was performed.
2. […]

Setting [1] is: 1 mg/mL eye drop 4 times/day for 13 days from the day after model creation (test group 3).
Where [2] appears, read: 1 mg/mL eye drop 4 times/day for 13 days from the day after model creation (test group 3), listed as compound 9.
Setting [3] is: (pre) 1 mg/mL eye drop 4 times/day on the 2 days before model creation (test group 2).
The mark [4] stands for this setting: (pre) 1 mg/mL eye drop 4 times/day on the 2 days before model creation (test group 2), listed as compound 9.
[5] abbreviates: compound 9 (pre), 1 mg/mL eye drop, right eye, individual animals 201-210.

For the molecule `CC[C@@]1(C)Oc2cc(ccc2O)C[C@H](NC)C(=O)N[C@@H](C(C)C)C(=O)N[C@@H]1C(=O)N[C@@H](CC(=O)O)C(=O)O` [Compound 9], under setting [1], the “Thickness of IPL (μm)” value was found to be 44.32±1.47 μm and the “Thickness of ONL (μm)” value was 39.42±1.92 μm. Further, under setting [2], the “Thickness of INL (μm)” value is 28.71 ± 1.67 μm and the “Thickness of ONL (μm)” value turned out to be 39.42 ± 1.92 μm. Under setting [3], the “Thickness of INL (μm)” value was 30.39±1.24 μm, the “Thickness of IPL (μm)” value is on record as 41.51±1.27 μm and the “Thickness of ONL (μm)” value came out at 42.55±1.13 μm. Also, under setting [4], the “Thickness of INL (μm)” value came out at 30.39 ± 1.24 μm and the “Thickness of ONL (μm)” value came out at 42.55 ± 1.13 μm. The “Inhibitory effect on retinal damage induced by ischemia of aqueous humor pressure load” value (anterior chamber aqueous humor pressure load rat model, overall conclusion) is “inhibitory effect on retinal damage induced by ischemia of aqueous humor pressure load was observed”. For the same molecule, under setting [5], the “Thickness of ONL, distance from optic disk 600 μm (single measurement)” value was 41.121 μm and 44.598 μm and 41.326 μm (2×) and 41.066 μm and 41.161 μm and 38.743 μm and 41.131 μm and 38.275 μm and 37.963 μm and 43.645 μm and 43.106 μm and 45.168 μm and 47.317 μm and 40.325 μm and 41.137 μm and 43.653 μm and 45.150 μm and 48.296 μm and 46.805 μm and 44.685 μm and 46.160 μm and 42.772 μm and 45.479 μm and 40.612 μm and 40.588 μm and 46.031 μm and 41.299 μm and 42.932 μm and 48.910 μm; the “Thickness of ONL, distance from optic disk 900 μm (single measurement)” value was 39.011 μm and 42.742 μm and 45.091 μm and 47.744 μm and 45.684 μm and 43.996 μm and 37.237 μm and 36.389 μm and 38.143 μm and 43.578 μm and 39.518 μm and 41.375 μm and 35.794 μm and 34.452 μm and 41.663 μm and 42.383 μm and 44.814 μm and 41.883 μm and 43.824 μm and 46.139 μm and 43.354 μm and 38.661 μm and 41.202 μm and 40.552 μm and 46.165 μm and 45.398 μm and 48.471 μm and 47.795 μm and 47.248 μm and 46.278 μm. Moreover, the “Thickness of ONL, distance from optic disk 300 μm (single measurement)” value (compound 9 (pre), 1 mg/mL eye drop, right eye, individual animals 201-210, aqueous humor pressure load rat model) is 50.813 μm and 51.311 μm and 53.250 μm and 34.452 μm and 30.709 μm and 34.312 μm and 40.039 μm and 41.413 μm and 11.468 μm and 39.811 μm and 37.328 μm and 39.938 μm and 33.741 μm and 35.794 μm and 35.603 μm and 42.742 μm and 44.362 μm and 44.355 μm and 36.433 μm and 40.355 μm and 37.980 μm and 39.617 μm and 40.341 μm and 39.065 μm and 40.883 μm and 41.062 μm and 40.112 μm and 37.690 μm and 36.851 μm and 39.911 μm. For the same molecule, where the note is “compound 9 (pre), 1 mg/mL eye drop, right eye, 300 μm from optic disk, individual measurements per animal”, the “Thickness of INL (μm), Distance from Optic Disk 300 μm” value was 33.065 μm (2×) and 33.507 μm and 34.677 μm and 27.561 μm and 24.567 μm and 22.703 μm and 32.389 μm and 34.110 μm and 29.740 μm and 25.207 μm and 23.667 μm and 23.845 μm and 26.312 μm and 23.484 μm and 24.843 μm and 33.881 μm and 35.521 μm and 29.211 μm and 29.882 μm and 27.608 μm and 23.876 μm and 25.810 μm and 24.277 μm and 32.198 μm and 33.996 μm and 30.756 μm and 28.424 μm and 29.579 μm and 30.220 μm. For the same molecule, the “Thickness of IPL (μm), Distance from Optic Disk 300 μm” value (compound 9 (pre), 1 mg/mL eye drop, right eye, 300 μm from optic disk, individual measurements per animal, listed as compond 9) was 30.656 μm and 25.003 μm and 29.032 μm and 29.077 μm and 33.909 μm (2×) and 31.903 μm and 34.939 μm and 37.800 μm and 36.389 μm and 29.133 μm and 28.638 μm and 29.937 μm and 29.144 μm (2×) and 35.013 μm and 33.871 μm and 31.072 μm and 34.110 μm and 29.907 μm and 35.630 μm and 33.931 μm and 27.028 μm and 28.472 μm and 34.310 μm and 34.680 μm and 32.998 μm and 28.183 μm and 25.310 μm and 26.057 μm. In addition, the “Thickness of INL (μm), Distance from Optic Disk 300 μm, Mean” value (compound 9 (pre), 1 mg/mL eye drop, right eye, 300 μm from optic disk, mean per animal) is 33.750 μm and 24.944 μm and 32.080 μm and 24.240 μm and 24.880 μm and 34.156 μm and 28.900 μm and 24.654 μm and 32.317 μm and 29.408 μm.
